The assay deals with Human immunodeficiency virus type 1 integrase (Human immunodeficiency virus 1, UniProt Q7ZJM1). Briefly: Inhibitory activity of compound against HIV-1 integrase.

As usually defined, the IC50 is the concentration at which inhibition is half-maximal. Read a low IC50 as greater potency in that assay.

Some results are limits rather than exact numbers.

Sequence of Human immunodeficiency virus type 1 integrase (Q7ZJM1 whole entry): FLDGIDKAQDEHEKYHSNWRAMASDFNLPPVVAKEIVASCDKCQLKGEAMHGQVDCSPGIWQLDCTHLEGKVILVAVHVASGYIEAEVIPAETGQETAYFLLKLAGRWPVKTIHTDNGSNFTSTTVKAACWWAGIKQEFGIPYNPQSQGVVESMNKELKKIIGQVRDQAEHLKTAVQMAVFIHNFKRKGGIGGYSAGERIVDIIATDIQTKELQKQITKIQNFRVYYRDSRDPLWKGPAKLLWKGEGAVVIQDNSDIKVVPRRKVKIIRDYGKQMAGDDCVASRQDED

On to H-STTVKAASWWA-NH2, for which the 50% inhibitory concentration (IC50) is more than 1000 µM.
The value for H-QETAYFLLKLAGRWP-NH2 was 35 µM; that for `CC[C@@H](C)[C@H](NC(=O)[C@H](CCCNC(=N)N)NC(=O)[C@H](CCC(=O)O)NC(=O)CNC(=O)[C@H](C)N)C(=O)N[C@H](C(=O)N[C@@H](CC(=O)O)C(=O)N[C@H](C(=O)N[C@H](C(=O)N[C@@H](C)C(N)=O)[C@@H](C)CC)[C@@H](C)CC)C(C)C` was 30 µM.
The value for H-AGERIVDIIATDIQ-NH2 was 2 µM; that for H-GYIEAEVI-NH2 was more than 1000 µM.
The value for H-HLKTAVQMAVFIHNFKR-NH2 was 3 µM.
As to H-QETAYFLLKLAGR-NH2, inhibition was half-maximal at 150 µM (IC50).

These data come from ChEMBL document CHEMBL1136661, “Interfacial peptide inhibitors of HIV-1 integrase activity and dimerization” (Bioorg Med Chem Lett, 2003).
